Test results: patent US6573377B1, “Pyrazole derivatives and salts thereof” (Daiichi Pharmaceuticals Co., Ltd., priority 1998, dated 2003)
Converted amounts (≈) assume the structure as drawn. Structures can show the parent of a compound that is named as a salt. Marks after values point to notes of the source that are not given here.

Columns and labels:
[1] = system: human pulmonary carcinoma strain PC-12; assay: Growth inhibition of PC-12 cells, MTT assay (Test Example 1); assay type: cell-based; conditions: cultured 3 days with sample, absorbance 540 nm; for GI50: Homo sapiens, PC-12, 72 h
Description: A human pulmonary carcinoma strain PC-12 which had been subcultured using RPMI 1640 containing 10% fetal calf serum, 2 mM of L-glutamine and 100 μg/ml of kanamycin sulfate was inoculated into a 96 well microplate at an inoculum size of 1.0×1.0^3 cells/150 μl/well, and 50 μl/well of a sample was added 24 hours thereafter. The cells were then cultured for 3 days, and a 5 mg/ml solution of MTT (3-(4,5-dimethylthiazol-2-yl)-2,5-diphenyl-2H-tetrazolium bromide) was dispensed in 20 μl/well portions. Four hours thereafter, the culture medium was discarded, dimethyl sulfoxide was dispensed in 150 μl/well portions and the absorbance was measured at 540 nm. The antitumor effect was shown by GI50 value (ng/ml) as a drug concentration which reduced cell growth of the drug-added group to 50% of the control group.

[2] = system: Mouse fibrosarcoma Meth A; assay: Antitumor effect (IR) against subcutaneously transplanted Meth A; assay type: in vivo, mice; conditions: judged on the 17th day
mice (Balb/c) = assay: Coordination inhibition test, RotaRod (Test Example 2); assay type: in vivo; conditions: oral; for T/C (coordination inhibition positive mice/tested mice) After 1 hour: 1 hour after administration; for T/C (coordination inhibition positive mice/tested mice) After 4 hours: 4 hours after administration
Description: Rotation speed of the rotary rod (3 cm in diameter) of RotaRod apparatus (mfd. by Natsume Seisaku-sho) was set to 10 rpm, and mice (Balb/c) which stood on the rod for 60 seconds or more were selected. After 1, 4 or 24 hours of the oral administration of each test sample, these mice were put on the rod, and the mice which dropped within 60 seconds were regarded as coordination inhibition action positive.

SMILES: Cc1c(/C=C/CN2CCN3c4cc(F)ccc4OCC3C2)cnn1-c1nccc(N)n1 (racemic) [Example 3, (+/−)-3-[3-[1-(4-Amino-2-pyrimidinyl)-5-methyl-4-pyrazolyl]-2-trans-propen-1-yl]-9-fluoro-2,3,4,4a,5,6-hexahydro-1H-pyrazino[2,1-c]-1,4-benzoxazine hydrochloride]
- GI50 [1]: 20.9 ng/mL

SMILES: Cc1c(/C=C/CN2CCN3c4ccccc4CC3C2)cnn1-c1nccc(N)n1 (racemic) [Example 4, (+/−)-2-[3-[1-(4-Amino-2-pyrimidinyl)-5-methyl-4-pyrazolyl]-2-trans-propen-1-yl]-1,2,3,4,10,10a-hexahydropyrazino[1,2-a]indole hydrochloride]
- GI50 [1]: 12.1 ng/mL

SMILES: Cc1c(/C=C/CN2CCN3c4cc(F)ccc4CCC3C2)cnn1-c1nccc(N)n1 (single isomer, unassigned; isomer a) [Example 1, 3-[3-[1-(4-Amino-2-pyrimidinyl)-5-methyl-4-pyrazolyl]-2-trans-propen-1-yl]-9-fluoro-2,3,4,4a,5,6-hexahydro-1H-pyrazino[1,2-a]quinoline hydrochloride (isomer A)]
- GI50 Value ([1]; listed as Compound of Example 1): 36.5 ng/mL

SMILES: Cc1c(/C=C/CN2CCN3c4cc(F)ccc4CCC3C2)cnn1-c1nccc(N)n1 (single isomer, unassigned; isomer b) [Example 2, 3-[3-[1-(4-amino-2-pyrimidinyl)-5-methyl-4-pyrazolyl]-2-trans-propen-1-yl]-9-fluoro-2,3,4,4a,5,6-hexahydro-1H-pyrazino[1,2-a]quinoline hydrochloride (isomer B)]
- GI50 Value ([1]; listed as Compound of Example 2): 12.1 ng/mL

SMILES: Cc1c(/C=C/CN2CCN3c4cc(F)cc(F)c4CCC3C2)cnn1-c1cc(N(C)CCO)nc(N)n1.Cl (single isomer, unassigned; isomer b) [Example 28, 3-[3-[1-[2-Amino-6-[N-methyl-N-(2-hydroxyethyl)amino-4-pyrimidinyl]-5-methyl-4-pyrazolyl]-2-trans-propen-1-yl]-7,9-difluoro-2,3,4,4a,5,6-hexahydro-1H-pyrazino[1,2-a]quinoline hydrochloride (isomer B)]
- GI50 [1]: 0.725 ng/mL

SMILES: Cc1c(/C=C/CN2CCN3c4cc(F)cc(F)c4CCC3C2)cnn1-c1cc(N(CCO)CCO)nc(N)n1 (single isomer, unassigned; isomer b) [Example 29, 3-[3-[1-[2-Amino-6-di(2-hydroxyethyl)amino-4-pyrimidinyl]-5-methyl-4-pyrazolyl]-2-trans-propen-1-yl]-7,9-difluoro-2,3,4,4a,5,6-hexahydro-1H-pyrazino[1,2-a]quinoline hydrochloride (isomer B)]
- GI50 [1]: 1.54 ng/mL

SMILES: O=c1[nH]cc(F)c(=O)[nH]1 [Example 5-FU, 5-FU, reference compound]
- GI50 Value [1]: 35.5 ng/mL (≈ 0.273 µM)

SMILES: Cc1c(/C=C/CN2CCN(c3cc(F)cc(F)c3)CC2)cnn1-c1cc(NCCO)nc(N)n1.Cl [Example 11, 1-[1-[2-Amino-6-(2-hydroxyethyl)amino-4-pyrimidinyl]-5-methyl-4-pyrazolyl]-3-[4-(3,5-difluorophenyl)-1-piperazinyl]-1-trans-propene]
- GI50 [1]: 2.49 ng/mL

SMILES: Cc1c(/C=C/CN2CCN(c3cc(F)cc(F)c3)CC2)cnn1-c1cc(N(CCO)CCO)nc(N)n1.Cl [Example 12, 1-[1-[2-Amino-6-di(2-hydroxyethyl)amino-4-pyrimidinyl]-5-methyl-4-pyrazolyl]-3-(4-(3,5-difluorophenyl)-1-piperazinyl]-1-trans-propene hydrochloride]
- GI50 [1]: 1.6 ng/mL

SMILES: Cc1c(/C=C/CN2CCN(c3cc(F)cc(F)c3)CC2)cnn1-c1cc(N2CC(O)C2)nc(N)n1.Cl [Example 13, 1-[1-[2-Amino-6-(3-hydroxy-1-azetidinyl)-4-pyrimidinyl]-5-methyl-4-pyrazolyl]-3-[4-(3,5-difluorophenyl)-1-piperazinyl]-1-trans-propene hydrochloride]
- antitumor effect (IR) ([2]; oral 5 mg × 4 times (d7-10)): 5 mg × 4 times (IR 92%)*
- T/C (coordination inhibition positive mice/tested mice) After 1 hour (mice (Balb/c); dose 5 mg): 0/6
- T/C (coordination inhibition positive mice/tested mice) After 4 hours (mice (Balb/c); dose 5 mg): 0/6
- T/C (coordination inhibition positive mice/tested mice) After 1 hour (mice (Balb/c); dose 10 mg): 0/6
- T/C (coordination inhibition positive mice/tested mice) After 4 hours (mice (Balb/c); dose 10 mg): 0/6
- T/C (coordination inhibition positive mice/tested mice) After 1 hour (mice (Balb/c); dose 12 mg): 1/6
- T/C (coordination inhibition positive mice/tested mice) After 4 hours (mice (Balb/c); dose 12 mg): 2/6
- GI50 [1]: 0.601 ng/mL

SMILES: Cc1c(/C=C/CN2CCN(c3cc(F)cc(F)c3)CC2)cnn1-c1cc(NCCN)nc(N)n1.Cl [Example 15, 1-[1-[2-Amino-6-(2-aminoethyl)amino-4-pyrimidinyl]-5-methyl-4-pyrazolyl]-3-[4-(3,5-difluorophenyl)-1-piperazinyl]-1-trans-propene hydrochloride]
- GI50 [1]: 26.6 ng/mL

SMILES: Cc1c(/C=C/CN2CCN(c3cc(F)cc(F)c3)CC2)cnn1-c1cc(N2CC(N)C2)nc(N)n1.Cl [Example 19, 1-[1-[2-Amino-6-(3-amino-1-azetidinyl)-4-pyrimidinyl]-5-methyl-4-pyrazolyl]-3-[4-(3,5-difluorophenyl)-1-piperazinyl]-1-trans-propene hydrochloride]
- GI50 [1]: 2.35 ng/mL

SMILES: Cc1c(/C=C/CN2CCN(c3cc(F)cc(F)c3)CC2)cnn1-c1nc(N)cc(N2CC(O)C2)n1.Cl [Example 21, 1-[1-[4-Amino-6-(3-hydroxy-1-azetidinyl)-2-pyrimidinyl]-5-methyl-4-pyrazolyl]-3-[4-(3,5-difluorophenyl)-1-piperazinyl]-1-trans-propene hydrochloride]
- GI50 [1]: 3.39 ng/mL

SMILES: Cc1c(/C=C/CN2CCN(c3cc(F)cc(F)c3)CC2)cnn1-c1nc(N)cc(N2CCC2)n1 [Example 26, 1-[[4-Amino-6-(1-azetidinyl)-2-pyrimidinyl]-5-methyl-4-pyrazolyl]-3-[4-(3,5-difluorophenyl)-1-piperazinyl]-1-trans-propene hydrochloride]
- GI50 [1]: 6.29 ng/mL

SMILES: Cc1c(/C=C/CN2CCN3c4cc(F)cc(F)c4CCC3C2)cnn1-c1cc(NCCO)nc(N)n1 (stereo not drawn) [Example 27, 3-[3-[1-[2-Amino-6-(2-hydroxyethyl)amino-4-pyrimidinyl]-5-methyl-4-pyrazolyl]-2-trans-propen-1-yl]-7,9-difluoro-2,3,4,4a,5,6-hexahydro-1H-pyrazino[1,2-a]quinoline hydrochloride]
- GI50 [1]: 9.3 ng/mL

SMILES: Cc1c(/C=C/CN2CCN(c3cc(F)cc(F)c3)CC2)cnn1-c1cc(N2CC(C)(O)C2)nc(N)n1.Cl [Example 54, 1-[1-[2-Amino-6-(3-hydroxy-3-methyl-1-azetidinyl)-4-pyrimidinyl]-5-methyl-4-pyrazolyl]-3-[4-(3,5-difluorophenyl)-1-piperazinyl]-1-trans-propene hydrochloride]
- antitumor effect (IR) ([2]; oral 10 mg × 4 times (d7-10)): 10 mg × 4 times (IR 89%)*
- T/C (coordination inhibition positive mice/tested mice) After 1 hour (mice (Balb/c); dose 10 mg): 0/6
- T/C (coordination inhibition positive mice/tested mice) After 4 hours (mice (Balb/c); dose 10 mg): 0/6
- T/C (coordination inhibition positive mice/tested mice) After 1 hour (mice (Balb/c); dose 30 mg): 0/6
- T/C (coordination inhibition positive mice/tested mice) After 4 hours (mice (Balb/c); dose 30 mg): 0/6
- GI50 [1]: 11.3 ng/mL
